This is an account of results in article PMC5729604, “Dual inhibitors of hepatitis C virus and hepatocellular carcinoma: design, synthesis and docking studies” (Future Science OA, 2017).

Converted amounts (≈) assume the structure as drawn. Where two headings read alike, the source gives them in different places.

One data set is described as follows: In vitro hemolytic assay. In kind it is cell-based. Particulars: 2% erythrocyte suspension (washed red blood cells); 2% erythrocyte suspension, 3 μl of 1 mg/ml compound in DMF per 240 μl well, 37°C 30 min, absorbance 405 nm; <5% considered nontoxic. The protocol:
Compounds 5a-x and 6a-h were subjected to the in vitro hemolytic assay to identify those which cause hemolysis to red blood cells (RBCs). Consequently, these compounds would be toxic in vivo so they were excluded from further biological screening.
Blood samples (5 ml) were freshly collected into heparinized tubes and were centrifuged (1000 r.p.m. for 20 min) at room temperature. The plasma and buffy coat were removed by Pasteur pipette, and the collected erythrocytes were washed three-times using isotonic buffer solution (0.9% sodium chloride [Sigma-Aldrich, MO, USA]) by centrifugation (2500 r.p.m. for 10 min). A two percent erythrocyte suspension was prepared to be used in the assay.
A 1 mg/ml stock solution of each compound was prepared in DMF (Sigma-Aldrich). Compound wells were prepared by adding 3 μl of the compound solution to 117 μl isotonic buffer solution and 120 μl erythrocyte suspension. Compounds color blank wells were prepared by adding 3 μl compound to 237 μl isotonic buffer solution. Solvent (DMF) wells were prepared by adding 3 μl DMF to 117 μl isotonic buffer solution and 120 μl erythrocyte suspension. Positive control wells (representing 100% hemolysis) were prepared by adding 120 μl erythrocyte suspension to 120 μl distilled water, while negative control wells (representing 0% hemolysis) were prepared by adding 120 μl erythrocyte suspension to 120 μl isotonic buffer solution. Finally, blank wells contained only 240 μl isotonic buffer solution. Each set of samples was pipetted in triplicate. The microtiter plate was then shaken well on bench, incubated at 37°C for 30 min then centrifuged (2000 rpm for 5 min) at room temperature.
A fraction of the supernatant layer (150 μl) of each well was transferred to another 96-well microtiter plate. Erythrocyte hemolysis was determined by reading the absorbance (A) of liberated hemoglobin at 405 nm in the supernatant fraction compared with the 100% hemolysis of erythrocyte. The average value was calculated from triplicate assay: [drawing 2]

Data set [1] has as its system human HCC cell line HepG2. Nature of the data set: cells. In kind it is cell-based. As to conditions: for IC50: Homo sapiens, HepG2, 72 h, neutral red; for IC50 / (LD0) HepG2 / Safe doses (100% viability of HepG2) LD0: 72 h; for (LD0) HepG2 / Safe doses (100% viability of HepG2) LD0: human; for in vitro anticancer activity against HepG2, in words: IC50 <100 μg/ml potential, 100-1000 μg/ml moderate. The protocol: The safe compounds on RBCs (5a-g, 5i-l, 5p-r, 5v-w, 6b-g) were screened for their potential anticancer activity against human HCC cell line HepG2. HepG2 cells were exposed to the test compounds, then viability of cells was measured using neutral red uptake assay as described by Borenfreund and Puerner. This assay depends on the fact that neutral red dye can be incorporated into the lysosomes of living cells providing a quantitative assay to the cytotoxic effects. The results were interpreted to calculate both the concentration causing 50% cancer cell death (IC50) of each compound and the maximum safe concentration that cause 100% viability (LD0; to be used in the in vitro anti-HCV testing) using GraphPad InStat 3.0 software (Figure 5 & Supplementary Table 2).
HepG2 cells were routinely maintained as adherent cell cultures in RPMI-1640 medium (Lonza Group Ltd, Basel, Switzerland) supplemented with 10% fetal bovine serum (FBS; Lonza, IL, USA) at 37°C in a humidified air incubator containing 5% CO2. Cells were subcultured for 2 weeks before assay. Cell viability was assessed using trypan blue exclusion method.
HepG2 cells were washed twice in RPMI-1640 medium supplemented with 200 μM L-glutamine (Lonza) and […] 4-(2-hydroxyethyl)-1-piperazineethanesulfonic acid (HEPES) buffer (Lonza). The cells were suspended at 3 × 10^4 cells/ml in RPMI culture medium (RPMI supplemented medium and 10% FBS). The appropriate number of cells was chosen to be 3 × 10^3 cells/well (100 μl of the prepared suspension), and the cells were left to adhere on the polystyrene 96-well plates in an incubator at 37°C, 5% CO2 and 95% humidity for 24 h. The cells were washed once using RPMI supplemented medium.
A 2 mg/ml stock solution of each compound was prepared in DMF and filtered using a 0.2 μM syringe filter. The desired concentrations (20, 10, 5, 2.5 and 1.25 μg/ml) were prepared using serial dilution in a 96-well plate. Compound wells were prepared by adding 100 μl of the previously prepared concentrations to a 100 μl of HepG2 cells suspension. Parallel concentrations of the solvent were prepared to be used as controls. 5-Fluorouracil was used as a positive control. Control wells were prepared by adding 100 μl culture media to a 100 μl of HepG2 cells suspension. Blank wells contained 200 μl of culture media only (without cells or compound solution). Each set of samples was pipetted in duplicate. The plate was gently shaken, then incubated at 37°C, 5% CO2 for 72 h.
After incubation, the plate was centrifuged (2000 r.p.m. for 10 min). The media were discarded by inversion over paper towels. A working solution (100 μg/ml) of neutral red stain (Bio Basic Inc, Markham, Canada) was prepared, and 100 μl of this solution was added to each well, then the plate was gently shaken. The plate was incubated at 37°C in humidified 5% CO2 for 3 h, and then centrifuged (2000 r.p.m. for 10 min). Excess dyes were discarded, and the cells were fixed with 100 μl fixing solution (0.5% formalin with 1% calcium chloride [Sigma-Aldrich]) for 1 min. Cells were destained in 100 μl destaining solution (50% ethanol with 1% glacial acetic acid [Sigma-Aldrich]) for 5 min by shaking. The stain intensity was assayed using automated microplate reader spectrophotometer adjusted at 490 nm. Surviving cell fraction was calculated according to the following equation: [drawing 3]
The results were interpreted to calculate both the concentration causing 50% cancer cell death (IC50) of each compound and the maximum safe concentration that cause 100% viability (LD0; to be used in the in vitro anti-HCV testing) using GraphPad InStat 3.0 software.

[2] abbreviates: Supplementary Table 2, read-out: Anticancer (HepG2) IC50.
The mark [3] stands for this setting: Table 1, read-out: IC50 (HepG2).

The molecule `CC(=NN=C1SC(=Cc2cn(-c3ccccc3)nc2-c2ccccc2)C(=O)N1c1ccccc1)c1cc2ccccc2o1` [Compound 5a, 2-[1-(Benzofuran-2-yl)ethylidenehydrazono]-5-[(1,3-Diphenyl-1H-pyrazol-4-yl)methylene]-3-phenylthiazolidin-4-one] returned a hemolysis at 30 min, 12.5 µg/ml in the data set “In vitro hemolytic assay” of 3.27%. The 50% inhibitory concentration (IC50) in data set [1] (setting [2]) turned out to be 173 µg/mL (≈ 298 µM). For the same molecule, in data set [1], the “(LD0) HepG2” value stood at 10.15 µg/mL and the “Safe doses (100% viability of HepG2) LD0” value was 10.15 µg/mL.

With `CC(=NN=C1SC(=Cc2cn(-c3ccccc3)nc2-c2ccc(Cl)cc2)C(=O)N1c1ccccc1)c1cc2ccccc2o1` [Compound 5b, 2-[1-(Benzofuran-2-yl)ethylidenehydrazono]-5-{[3-(4-chlorophenyl)-1-phenyl-1H-pyrazol-4-yl]methylene}-3-phenylthiazolidin-4-one], the hemolysis at 30 min, 12.5 µg/ml in the data set “In vitro hemolytic assay” turned out to be 4.22%. Further, the concentration for half-maximal inhibition (IC50) in data set [1] (setting [2]) was found to be 120 µg/mL (≈ 195 µM). In data set [1], the “(LD0) HepG2” value was determined as 23.02 µg/mL and the “Safe doses (100% viability of HepG2) LD0” value is 23.02 µg/mL.

`COc1ccc(-c2nn(-c3ccccc3)cc2C=C2SC(=NN=C(C)c3cc4ccccc4o3)N(c3ccccc3)C2=O)cc1` [Compound 5c, 2-[1-(Benzofuran-2-yl)ethylidenehydrazono]-5-{[3-(4-methoxyphenyl)-1-phenyl-1H-pyrazol-4-yl]methylene}-3-phenylthiazolidin-4-one]: in the data set “In vitro hemolytic assay”, the hemolysis at 30 min, 12.5 µg/ml is 1.65%. For the same molecule, in data set [1] (setting [2]), the IC50 was determined as 143 µg/mL (≈ 235 µM). Further, in data set [1], the “(LD0) HepG2” value is 5.88 µg/mL and the “Safe doses (100% viability of HepG2) LD0” value stood at 5.88 µg/mL.

Molecule `CC(=NN=C1SC(=Cc2cn(-c3ccccc3)nc2-c2ccccc2)C(=O)N1c1ccc(Cl)cc1)c1cc2ccccc2o1` [Compound 5d, 2-[1-(Benzofuran-2-yl)ethylidenehydrazono]-5-[(1,3-Diphenyl-1H-pyrazol-4-yl)methylene]-3-(4-chlorophenyl)thiazolidin-4-one] returned a hemolysis at 30 min, 12.5 µg/ml in the data set “In vitro hemolytic assay” of 1.05%. In addition, the 50% inhibitory concentration (IC50) in data set [1] (setting [2]) worked out at 1140 µg/mL (≈ 1850 µM). In data set [1], the “in vitro anticancer activity against HepG2, in words” value (“in vitro anticancer activity” for short) is “very weak anticancer activity”; the “(LD0) HepG2” value worked out at 163.55 µg/mL; the “Safe doses (100% viability of HepG2) LD0” value turned out to be 163.55 µg/mL.

As to `CC(=NN=C1SC(=Cc2cn(-c3ccccc3)nc2-c2ccc(Cl)cc2)C(=O)N1c1ccc(Cl)cc1)c1cc2ccccc2o1` [Compound 5e, 2-[1-(Benzofuran-2-yl)ethylidenehydrazono]-5-{[3-(4-chlorophenyl)-1-phenyl-1H-pyrazol-4-yl]methylene}-3-(4-chlorophenyl)thiazolidin-4-one], in the data set “In vitro hemolytic assay”, the hemolysis at 30 min, 12.5 µg/ml was 3.82%. Further, in data set [1] (setting [2]), the IC50 was 318 µg/mL (≈ 490 µM). For the same molecule, in data set [1], the “(LD0) HepG2” value is 31.12 µg/mL and the “Safe doses (100% viability of HepG2) LD0” value amounted to 31.12 µg/mL.

`COc1ccc(-c2nn(-c3ccccc3)cc2C=C2SC(=NN=C(C)c3cc4ccccc4o3)N(c3ccc(Cl)cc3)C2=O)cc1` [Compound 5f, 2-[1-(Benzofuran-2-yl)ethylidenehydrazono]-5-{[3-(4-methoxyphenyl)-1-phenyl-1H-pyrazol-4-yl]methylene}-3-(4-chlorophenyl)thiazolidin-4-one] registered a hemolysis at 30 min, 12.5 µg/ml in the data set “In vitro hemolytic assay” of 4.59%. Besides, the half-maximal inhibitory concentration (IC50) in data set [1] (setting [3]) is 69.4 µg/mL (≈ 108 µM). In data set [1], the “in vitro anticancer activity” value is listed as “potential in vitro anticancer activity”; the “(LD0) HepG2” value amounted to 10.39 µg/mL; the “Safe doses (100% viability of HepG2) LD0” value is 10.39 µg/mL. The same molecule had a Selectivity index in data set [1] (LD50 on PBMC / IC50 on HepG2) of 3.74. The “Selectivity index” value in data set [1] (LD50 on normal cells / IC50 on cancer cells, larger than three = highly selective) is given as “larger than three”.

`COc1ccc(N2C(=O)C(=Cc3cn(-c4ccccc4)nc3-c3ccccc3)SC2=NN=C(C)c2cc3ccccc3o2)cc1` [Compound 5g, 2-[1-(Benzofuran-2-yl)ethylidenehydrazono]-5-[(1,3-Diphenyl-1H-pyrazol-4-yl)methylene]-3-(4-methoxyphenyl)thiazolidin-4-one]: in “In vitro hemolytic assay”, the hemolysis at 30 min, 12.5 µg/ml stood at 2.03%. Also, in data set [1] (setting [2]), the IC50 worked out at 193 µg/mL (≈ 316 µM). In addition, in data set [1], the “(LD0) HepG2” value was 66.72 µg/mL and the “Safe doses (100% viability of HepG2) LD0” value was determined as 66.72 µg/mL.

`COc1ccc(-c2nn(-c3ccccc3)cc2C=C2SC(=NN=C(C)c3cc4ccccc4o3)N(c3ccc(OC)cc3)C2=O)cc1` [Compound 5i, 2-[1-(Benzofuran-2-yl)ethylidenehydrazono]-5-{[3-(4-methoxyphenyl)-1-phenyl-1H-pyrazol-4-yl]methylene}-3-(4-methoxyphenyl)thiazolidin-4-one] had a hemolysis at 30 min, 12.5 µg/ml in “In vitro hemolytic assay” of 2.97%. For the same molecule, the 50% inhibitory concentration (IC50) in data set [1] (setting [2]) stood at 120 µg/mL (≈ 188 µM). In data set [1], the “(LD0) HepG2” value amounted to 0.05 µg/mL and the “Safe doses (100% viability of HepG2) LD0” value was 0.05 µg/mL.

For `CC(=NN=C1SC(=Cc2cn(-c3ccccc3)nc2-c2ccccc2)C(=O)N1C1CCCCC1)c1cc2ccccc2o1` [Compound 5j, 2-[1-(Benzofuran-2-yl)ethylidenehydrazono]-5-[(1,3-Diphenyl-1H-pyrazol-4-yl)methylene]-3-cyclohexylthiazolidin-4-one], in the data set “In vitro hemolytic assay”, the hemolysis at 30 min, 12.5 µg/ml worked out at 3.01%. In data set [1] (setting [3]), the half-inhibitory concentration (IC50) was 63.8 µg/mL (≈ 109 µM). Further, in data set [1], the “in vitro anticancer activity” value was “potential in vitro anticancer activity”; the “(LD0) HepG2” value was determined as 5.08 µg/mL; the “Safe doses (100% viability of HepG2) LD0” value was determined as 5.08 µg/mL. In data set [1] (LD50 on PBMC / IC50 on HepG2), the Selectivity index is 2.10.

In turn, `CC(=NN=C1SC(=Cc2cn(-c3ccccc3)nc2-c2ccc(Cl)cc2)C(=O)N1C1CCCCC1)c1cc2ccccc2o1` [Compound 5k, 2-[1-(Benzofuran-2-yl)ethylidenehydrazono]-5-{[3-(4-chlorophenyl)-1-phenyl-1H-pyrazol-4-yl]methylene}-3-cyclohexylthiazolidin-4-one] gave a hemolysis at 30 min, 12.5 µg/ml in “In vitro hemolytic assay” of 4.44%. Also, the IC50 in data set [1] (setting [2]) stood at 150 µg/mL (≈ 242 µM). In data set [1], the “(LD0) HepG2” value is 56.74 µg/mL and the “Safe doses (100% viability of HepG2) LD0” value came out at 56.74 µg/mL.

Usually IC50 stands for the point on the concentration scale where inhibition reaches its midpoint.
